Experimental data: ChEMBL document CHEMBL3727348, “3-(aryl or heteroaryl) methyleneindolin-2-one derivatives as inhibitors of cancer stem cell pathway kinases for the treatment of cancer” (2014)

Experiments:
[1] = target: Serine/threonine-protein kinase RIO2 (Homo sapiens) (UniProt Q9BVS4); assay: Inhibition of N-terminal GST-fused full length human recombinant RIOK2 expressed in baculovirus Sf21 cells assessed as reduction in kinase auto-phosphorylation at 10 uM in presence of ATP incubated for 1 hr by ELISA method
Serine/threonine-protein kinase RIO2 (Homo sapiens), sequence (Q9BVS4 whole entry, looked up, the tested form may be a part): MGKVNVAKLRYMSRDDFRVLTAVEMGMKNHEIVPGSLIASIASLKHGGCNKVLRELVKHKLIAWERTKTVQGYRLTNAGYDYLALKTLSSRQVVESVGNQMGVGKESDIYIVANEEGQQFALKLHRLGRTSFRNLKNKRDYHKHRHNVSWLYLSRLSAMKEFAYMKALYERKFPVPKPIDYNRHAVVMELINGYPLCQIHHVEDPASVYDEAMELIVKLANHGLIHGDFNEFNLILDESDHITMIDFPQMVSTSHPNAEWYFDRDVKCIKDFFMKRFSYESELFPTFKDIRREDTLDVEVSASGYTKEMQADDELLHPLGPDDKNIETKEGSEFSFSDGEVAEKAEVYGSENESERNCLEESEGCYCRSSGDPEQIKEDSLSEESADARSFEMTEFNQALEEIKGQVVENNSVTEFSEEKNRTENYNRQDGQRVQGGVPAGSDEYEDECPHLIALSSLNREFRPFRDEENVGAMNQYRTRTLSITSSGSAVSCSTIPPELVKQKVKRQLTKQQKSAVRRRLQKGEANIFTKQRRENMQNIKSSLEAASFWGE

[2] = test system: FaDu; assay: Cytotoxic activity against human FADU bulk cells incubated for 72 hrs by Cell-titer-Glo luminescence assay; assay type: functional, cell-based
[3] = test system: A549; assay: Cytotoxic activity against human A549 bulk cells incubated for 72 hrs by Cell-titer-Glo luminescence assay; assay type: functional, cell-based; conditions: A549, 72 h
[4] = test system: FaDu; assay: Cytotoxic activity against human FADU cancer stem cells incubated for 72 hrs by Cell-titer-Glo luminescence assay; assay type: functional, cell-based
[5] = test system: ACHN; assay: Cytotoxic activity against human ACHN bulk cells incubated for 72 hrs by Cell-titer-Glo luminescence assay; assay type: functional, cell-based
[6] = test system: A549; assay: Cytotoxic activity against human A549 cancer stem cells incubated for 72 hrs by Cell-titer-Glo luminescence assay; assay type: functional, cell-based; conditions: A549, 72 h
[7] = test system: ACHN; assay: Cytotoxic activity against human ACHN cancer stem cells incubated for 72 hrs by Cell-titer-Glo luminescence assay; assay type: functional, cell-based

SMILES | inhibition [1] [%] | IC50 [2] [µM] | IC50 [3] [µM] | IC50 [4] [µM] | IC50 [5] [µM] | IC50 [6] [µM] | IC50 [7] [µM]
Cc1[nH]c(/C=C2\C(=O)Nc3ccc(-c4cnn(-c5ccccc5)c4)cc32)c(C)c1C(=O)NC1CNCC(c2ccccc2)C1 (stereo not drawn) | 69 |  |  |  |  |  | 
Cc1[nH]c(/C=C2\C(=O)Nc3ccc(-c4cnn(-c5ccccc5)c4)cc32)c(C)c1C(=O)NCc1nc2ccccc2[nH]1 | 79 |  |  |  |  |  | 
Cc1[nH]c(/C=C2\C(=O)Nc3ccc(-c4nnc(-c5ccccc5)s4)cc32)c(C)c1C(=O)N1CCN(C)CC1 | 19 | 14.1 | 48.9 | 0.23 |  |  | 
Cc1[nH]c(/C=C2\C(=O)Nc3ccc(-c4ccc(-c5ccccc5)s4)cc32)c(C)c1C(=O)N1CCN(C)CC1 | 65 | 25.4 |  | 1.16 |  |  | 
CCN(CC)CCNC(=O)c1c(C)[nH]c(/C=C2\C(=O)Nc3ccc(-c4cnccn4)cc32)c1C |  | 6.62 | 10.6 | 0.23 | 10.1 | 13.2 | 2.65
CCN(CC)CCN(C)C(=O)c1c(C)[nH]c(/C=C2\C(=O)Nc3ccc(-c4csc(-c5ccccc5)n4)cc32)c1C |  | 18.3 | 9.94 | 3.6 | 11.3 | 10.5 | 0.69
CCN(CC)CCNC(=O)CCc1c(C)[nH]c(/C=C2\C(=O)Nc3ccc(-c4csc(-c5ccncc5)n4)cc32)c1C |  | 28 | 10.1 | 4.57 | 7.42 | 35.7 | 1.24
CCN(CC)CCNC(=O)c1c(C)[nH]c(/C=C2\C(=O)Nc3cc(-c4cnc5ccccc5n4)ccc32)c1C |  | 7.45 | 7.07 | 2.24 | 10.9 | 42.6 | 6.97
O=C1Nc2ccc(-c3csc(-c4ccccc4)n3)cc2/C1=C/c1ncc[nH]1 |  | 7.57 | 17.2 | 2.5 | 1.44 | 2.31 | 2.91
Cc1cc(C)c(/C=C2\C(=O)Nc3ccc(-c4csc(-n5ccnc5)n4)cc32)[nH]1 |  | 14.5 | 9.31 | 37.4 | 8.84 | 35 | 2.72
Cc1ccc(-c2nc(-c3ccc4c(c3)/C(=C/c3[nH]c(C)c(C(=O)NCCN5CCCC5)c3C)C(=O)N4)cs2)cc1 |  | 4.22 | 5.99 | 0.31 | 2.32 | 12.2 | 0.14
CCN(CC)CCNC(=O)c1c(C)[nH]c(/C=C2\C(=O)Nc3ccc(-c4ncccc4C)cc32)c1C |  | 7.67 | 4.14 | 20 | 4.15 | 13.1 | 1.88
CCN(CC)CCNC(=O)c1c(C)[nH]c(/C=C2\C(=O)Nc3cc(-c4csc(-n5cccn5)n4)ccc32)c1C |  | 5.3 | 5.8 | 0.78 | 2.6 | 2.93 | 0.17
CCN(CC)CCNC(=O)c1c(C)[nH]c(/C=C2\C(=O)Nc3ccc(-c4ccc(C)cn4)cc32)c1C |  | 3.05 | 6.51 | 0.22 | 2.92 | 3.38 | 1.16
CCN(CC)CCNC(=O)c1c(C)[nH]c(/C=C2\C(=O)Nc3ccc(-c4cnc5ccccc5n4)cc32)c1C |  | 2.66 | 8.13 | 0.04 | 5.73 | 42.3 | 5.59
Cc1[nH]c(/C=C2\C(=O)Nc3ccc(-c4ccc(-c5ccccc5)s4)cc32)c(C)c1C(=O)N1CCOCC1 |  | 21.1 | 10.1 | 2.47 | 12.8 | 11 | 0.23
CCN(CC)CCNC(=O)c1c(C)[nH]c(/C=C2\C(=O)Nc3ccc(-c4nc5ccccc5s4)cc32)c1C |  | 4.93 | 3.73 | 5.97 | 9.53 | 4.13 | 0.98
CCN(CC)CCNC(=O)c1cc(C)c(/C=C2\C(=O)Nc3ccc(-c4csc(-c5ccccc5)n4)cc32)[nH]1 |  | 11.4 | 4 | 3.13 | 14.9 | 26.7 | 4.04
CCN(CC)CCNC(=O)c1c(C)[nH]c(/C=C2\C(=O)Nc3ccc(-c4ccc(C(=O)O)s4)cc32)c1C |  | 1.21 | 2.2 | 4.3 | 2.04 | 8.82 | 2.28
CCN(CC)CCNC(=O)c1c(C)[nH]c(/C=C2\C(=O)Nc3cc(-c4ccc(C(=O)c5ccccc5)cc4)ccc32)c1C |  | 4.46 | 3.65 | 1.46 | 4.11 | 3.16 | 1.63
CCN(CC)CCNC(=O)c1c(C)[nH]c(/C=C2\C(=O)Nc3ccc(-c4cnc5ccccc5c4)cc32)c1C |  | 4.59 | 3.85 | 5.47 | 6.39 | 6.83 | 0.62
CCN(CC)CCNC(=O)c1c(C)[nH]c(/C=C2\C(=O)Nc3ccc(-c4ccc(-c5ccccc5)nc4)cc32)c1C |  | 4.92 | 2.3 | 3.96 | 7.41 | 6.45 | 0.63
COC(=O)c1c(C)[nH]c(/C=C2\C(=O)Nc3ccc(-c4csc(-c5ccncc5)n4)cc32)c1C |  | 18.6 | 9.61 | 6.74 | 12.6 | 4.8 | 6.16
CCN(CC)CCNC(=O)c1c(C)[nH]c(/C=C2\C(=O)Nc3ccc(-c4ccc(-c5ccccc5)s4)cc32)c1C | 14 | 4.74 |  | 1.2 | 7.6 |  | 
CCN(CC)CCNC(=O)c1c(C)[nH]c(/C=C2\C(=O)Nc3ccc(-c4cccc(C#N)c4C)cc32)c1C |  | 4.27 | 2.8 | 4.73 | 5.23 | 4.48 | 0.57
CCN(CC)CCNC(=O)c1c(C)[nH]c(/C=C2\C(=O)Nc3ccc(-c4csc(-n5ccnc5)n4)cc32)c1C |  | 5.57 | 6.16 | 21.7 | 9.57 | 18.8 | 2.99
CCN(CC)CCNC(=O)c1c(C)[nH]c(/C=C2\C(=O)Nc3ccc(-c4ccncc4)cc32)c1C |  | 6.81 | 7.07 | 16.2 | 11.6 | 9.85 | 2.14
CCN(CC)CCNC(=O)c1c(C)[nH]c(/C=C2\C(=O)Nc3ccc(-c4ncccc4OC)cc32)c1C |  | 2.63 | 7.48 | 0.07 | 7.14 | 6.84 | 1.41
Cc1cc(C)c(/C=C2\C(=O)Nc3ccc(-c4ccc(O)cc4C)cc32)[nH]1 |  | 14.7 | 12.5 | 14.4 | 14.9 | 36.8 | 21.1
CCN(CC)CCNC(=O)c1c(C)[nH]c(/C=C2\C(=O)Nc3ccc(-c4cnc5ccccn45)cc32)c1C |  | 4.63 | 5.86 | 17.6 | 4.65 | 17.2 | 3.44
